Experimental data taken from patent US8598193B2, “Polycyclic agents for the treatment of respiratory syncytial virus infections” (Biota Scientific Management Pty Ltd., priority 2003, dated 2013).
In brackets after ≈: the same amount, converted by molar mass.

tested on: RSV A2; test: RSV antiviral cytopathic effect (CPE) assay, MTT readout; format: cell-based; conditions: human respiratory syncytial virus, HEp-2, 120 h, read-out: Activity Range (RSV A2 antiviral EC50), compounds of Table 2
Protocol: Method Q: RSV Antiviral Assay Protocol
Compounds of the invention were tested for their antiviral activity against respiratory syncytial virus. Cytopathic effect (CPE) assays were performed essentially as described in the literature (see for example Watanabe et al, 1. Virological Methods, 1994, 48, 257). Serial dilutions of the test compounds were made in assay medium. HEp2 cells (1.0×10^4 cells/well) were infected with RSV at a low multiplicity of infection (e.g. RSV A2 at an moi of 0.01) and 100 μL added to cultures assessing antiviral activity and cells without virus added to those assessing compound cytotoxicity. Assays were incubated for approximately 5 days at 37° C. in a 5% CO2 atmosphere. The extent of CPE was determined via metabolism of the vital dye 3-(4,5-dimethylthiaxol-2-yl)-2,5-diphenyltetrazolium bromide (MTT). A 3 mg/ml stock of MTT was made in assay medium and 100 μL added to each well, taking the final MTT concentration to […]. After 2 hours incubation at 37° C., the media-MTT solution was removed and 200 μL of isopropanol was added to dissolve the vital dye crystals. Plates were shaken and the absorbance read at 540 nm. The compound concentrations that inhibited CPE by 50% (EC50) and developed cytotoxicity (CC50) were calculated using an Excel curve fitting program.

In the case of Cc1nnsc1C(=O)N1CCN2C(=O)c3ccccc3C21c1ccc(Cl)cc1 (stereo not shown) [Compound 184], the EC50 was < 0.1 µg/mL.

same assay, conditions: human respiratory syncytial virus, HEp-2, 120 h; RSV A2 in HEp2 cells, CPE assay, MTT, approx. 5 days; read-out: Activity Range (RSV A2 antiviral EC50), compounds of Table 2

First: Cc1ccc(C23c4ccccc4C(=O)N2CCN3C(=O)NCc2ccccc2)cc1 (stereo not shown) [Compound 82]
Second: Cc1ccc(C23c4ccccc4C(=O)N2CCN3C(=O)NCc2ccc(F)cc2)cc1 (stereo not shown) [Compound 88]
The EC50 of the first is higher: 0.25 to 1 µg/mL (≈ 0.629 to 2.52 µM) for the first, < 0.1 µg/mL for the second.

COc1ccc(NC(=O)N2CCN3C(=O)c4ccccc4C23c2ccc(Cl)cc2)cc1 (stereo not shown) [Compound 85] and COc1ccc(NC(=O)N2CCN3C(=O)c4ccccc4C23c2ccc(C)cc2)cc1 (stereo not shown) [Compound 86] fall in the same range of EC50: 0.1 to 0.25 µg/mL (≈ 0.23 to 0.576 µM) for the first, 0.1 to 0.25 µg/mL (≈ 0.242 to 0.605 µM) for the second.

First: O=C(NCc1ccc(F)cc1)N1CCN2C(=O)c3ccccc3C12c1ccc(Cl)cc1 (stereo not shown) [Compound 87]
Second: COc1ccc(CNC(=O)N2CCN3C(=O)c4ccccc4C23c2ccc(Cl)cc2)cc1 (stereo not shown) [Compound 180]
The EC50 of the first is lower: 0.1 to 0.25 µg/mL (≈ 0.229 to 0.574 µM) for the first, 0.25 to 1 µg/mL (≈ 0.558 to 2.23 µM) for the second.

First: CCC(=O)N1CCN2C(=O)c3ccccc3C12c1ccc(C)cc1 (stereo not shown) [Compound 117]
Second: CCC(=O)N1CCN2C(=O)c3ccccc3C12c1ccc(Br)cc1 (stereo not shown) [Compound 236]
The EC50 of the first is higher: 0.25 to 1 µg/mL (≈ 0.78 to 3.12 µM) for the first, 0.1 to 0.25 µg/mL (≈ 0.26 to 0.649 µM) for the second.

Compared with O=C(c1ccc(F)cc1)N1CCN2C(=O)c3ccccc3C12c1cccc(Cl)c1 (stereo not shown) [Compound 144], O=C(c1ccc(F)cc1)N1CCN2C(=O)c3ccccc3C12c1ccc(F)cc1 (stereo not shown) [Compound 231] is higher in EC50: 0.1 to 0.25 µg/mL (≈ 0.246 to 0.614 µM) for the first, 0.25 to 1 µg/mL (≈ 0.64 to 2.56 µM) for the second.

Cc1ccc(CNC(=O)N2CCN3C(=O)c4ccccc4C23c2ccc(C)cc2)cc1 (stereo not shown) [Compound 178] and COc1ccc(CNC(=O)N2CCN3C(=O)c4ccccc4C23c2ccc(C)cc2)cc1 (stereo not shown) [Compound 179] fall in the same range of EC50: 0.25 to 1 µg/mL (≈ 0.608 to 2.43 µM) for the first, 0.25 to 1 µg/mL (≈ 0.585 to 2.34 µM) for the second.

Compared with O=C(c1ccno1)N1CCN2C(=O)c3ccccc3C12c1ccc(Cl)cc1 (stereo not shown) [Compound 183], O=C(c1ccco1)N1CCN2C(=O)c3ccccc3C12c1ccc(Cl)cc1 (stereo not shown) [Compound 219] is lower in EC50: 0.1 to 0.25 µg/mL (≈ 0.263 to 0.658 µM) for the first, < 0.1 µg/mL for the second.

Compared with Cc1nc(C(=O)N2CCN3C(=O)c4ccccc4C23c2ccc(Cl)cc2)cs1 (stereo not shown) [Compound 188], O=C(c1csc(-c2cccnc2)n1)N1CCN2C(=O)c3ccccc3C12c1ccc(Cl)cc1 (stereo not shown) [Compound 205] is lower in EC50: 0.25 to 1 µg/mL (≈ 0.61 to 2.44 µM) for the first, < 0.1 µg/mL for the second.

CCc1ccc(C23c4ccccc4C(=O)N2CCN3C(=O)Cc2ccc(OC)cc2)cc1 (stereo not shown) [Compound 190] and CCCc1ccc(C23c4ccccc4C(=O)N2CCN3C(=O)Cc2ccc(OC)cc2)cc1 (stereo not shown) [Compound 201] fall in the same range of EC50: 0.25 to 1 µg/mL (≈ 0.586 to 2.34 µM) for the first, 0.25 to 1 µg/mL (≈ 0.567 to 2.27 µM) for the second.

CCc1ccc(C23c4ccccc4C(=O)N2CCN3C(=O)c2ccc(F)cc2)cc1 (stereo not shown) [Compound 191] and CCCc1ccc(C23c4ccccc4C(=O)N2CCN3C(=O)c2ccc(F)cc2)cc1 (stereo not shown) [Compound 200] cannot be ordered by EC50: < 0.1 µg/mL for the first, < 0.1 µg/mL for the second.

CCC(=O)N1CCN2C(=O)c3ccccc3C12c1ccc(CC)cc1 (stereo not shown) [Compound 192] and CCCc1ccc(C23c4ccccc4C(=O)N2CCN3C(=O)CC)cc1 (stereo not shown) [Compound 199] fall in the same range of EC50: 0.25 to 1 µg/mL (≈ 0.748 to 2.99 µM) for the first, 0.25 to 1 µg/mL (≈ 0.717 to 2.87 µM) for the second.

First: CC(C)c1ccc(C23c4ccccc4C(=O)N2CCN3C(=O)c2ccc(F)cc2)cc1 (stereo not shown) [Compound 203]
Second: O=C(c1ccc(F)cc1)N1CCN2C(=O)c3ccccc3C12c1ccc(Br)cc1 (stereo not shown) [Compound 234]
The EC50 of the first is higher: 0.25 to 1 µg/mL (≈ 0.603 to 2.41 µM) for the first, < 0.1 µg/mL for the second.

COc1ccc(CCC(=O)N2CCN3C(=O)c4ccccc4C23c2ccc(Cl)cc2)cc1 (stereo not shown) [Compound 211] and COc1ccc(CC(=O)N2CCN3C(=O)c4ccccc4C23c2ccc(F)cc2)cc1 (stereo not shown) [Compound 232] fall in the same range of EC50: 0.25 to 1 µg/mL (≈ 0.559 to 2.24 µM) for the first, 0.25 to 1 µg/mL (≈ 0.6 to 2.4 µM) for the second.

CC(C)CC(=O)N1CCN2C(=O)c3ccccc3C12c1ccc(Cl)cc1 (stereo not shown) [Compound 214] and O=C(CC1CCCC1)N1CCN2C(=O)c3ccccc3C12c1ccc(Cl)cc1 (stereo not shown) [Compound 216] fall in the same range of EC50: 0.25 to 1 µg/mL (≈ 0.678 to 2.71 µM) for the first, 0.25 to 1 µg/mL (≈ 0.633 to 2.53 µM) for the second.

First: O=C(CSCc1ccccc1)N1CCN2C(=O)c3ccccc3C12c1ccc(Cl)cc1 (stereo not shown) [Compound 217]
Second: O=C(CCCc1ccccc1)N1CCN2C(=O)c3ccccc3C12c1ccc(Cl)cc1 (stereo not shown) [Compound 227]
The EC50 of the first is lower: 0.1 to 0.25 µg/mL (≈ 0.223 to 0.557 µM) for the first, 0.25 to 1 µg/mL (≈ 0.58 to 2.32 µM) for the second.

First: O=C1c2ccccc2C2(c3ccc(Cl)cc3)N1CCN2C(=O)C1Cc2ccccc21 (stereo not shown) [Compound 218]
Second: O=C(c1cccnc1)N1CCN2C(=O)c3ccccc3C12c1ccc(Cl)cc1 (stereo not shown) [Compound 230]
The EC50 of the first is higher: 0.25 to 1 µg/mL (≈ 0.603 to 2.41 µM) for the first, < 0.1 µg/mL for the second.

Compared with O=C(c1cccs1)N1CCN2C(=O)c3ccccc3C12c1ccc(Cl)cc1 (stereo not shown) [Compound 224], O=C(CCCc1c[nH]c2ccccc12)N1CCN2C(=O)c3ccccc3C12c1ccc(Cl)cc1 (stereo not shown) [Compound 228] is higher in EC50: < 0.1 µg/mL for the first, 0.25 to 1 µg/mL (≈ 0.532 to 2.13 µM) for the second.

First: COc1ccc(CC(=O)N2CCN3C(=O)c4ccccc4C23c2ccc(Br)cc2)cc1 (stereo not shown) [Compound 235]
Second: O=C(Oc1ccc(C23c4ccccc4C(=O)N2CCN3C(=O)c2ccc(F)cc2)cc1)c1ccc(F)cc1 (stereo not shown) [Compound 237]
The EC50 of the first is lower: 0.1 to 0.25 µg/mL (≈ 0.209 to 0.524 µM) for the first, 0.25 to 1 µg/mL (≈ 0.49 to 1.96 µM) for the second.
